Experimental data from PubChem BioAssay (NCI).
Several values for one entry are separate records, joined by “and”; a condition that tells them apart may be missing. Identical values can stand only once.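 Cultured in 96-well plates, cells were exposed to test compound for 48 hours across five concentrations. At the GI50, growth is halved. The concentration for full growth arrest is given as TGI.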 Where a SMILES comes first, the peptide text is derived from it. The star is where a group is joined. X36 = O=C(c1ccc(-c2ccc(Cl)cc2Cl)o1)*

What was measured:
Test in all cases: NCI tumour cell line growth inhibition, 48 h
CCRF-CEM leukemia = system: CCRF-CEM leukemia
DU-145 prostate = system: DU-145 prostate
EKVX NSCLC = system: EKVX NSCLC
HCT-116 colon = system: HCT-116 colon
MALME-3M melanoma = system: MALME-3M melanoma
MDA-MB-435 = system: MDA-MB-435
NCI-H226 lung = system: NCI-H226 lung
SK-MEL-2 melanoma = system: SK-MEL-2 melanoma
SN12C renal = system: SN12C renal
SW-620 colon = system: SW-620 colon

SMILES	TGI (CCRF-CEM leukemia)	TGI (DU-145 prostate)	TGI (EKVX NSCLC)	TGI (HCT-116 colon)	TGI (MALME-3M melanoma)	TGI (MDA-MB-435)	TGI (NCI-H226 lung)	TGI (SK-MEL-2 melanoma)	TGI (SN12C renal)	TGI (SW-620 colon)	GI50 (DU-145 prostate)	GI50 (MDA-MB-435)	GI50 (NCI-H226 lung)	GI50 (SN12C renal)
Cc1ccc(/C(O)=C/C(=O)C(=O)/C=C(\O)c2ccc(C)cc2C)c(C)c1	3.17 µM	5.43 µM	5.56 µM	6.58 µM	3.45 µM	3.99 µM	4.51 µM	3.65 µM	4.88 µM	6.88 µM				
O=c1oc2ccccc2c(Nc2ccc3c(c2)Oc2ccccc2O3)c1[N+](=O)[O-]	> 100 µM	90.1 µM	67.6 µM	> 100 µM	53.3 µM	> 100 µM	48.1 µM	34.5 µM	> 100 µM	74.9 µM				
O=c1c2ncn(COCCCl)c2n(-c2ccccc2)c(=S)n1-c1ccccc1	> 100 µM	> 100 µM	> 100 µM	> 100 µM	> 100 µM	> 100 µM	> 100 µM	> 100 µM	> 100 µM	> 100 µM				
CC1=NN2C(=N)/C(=C/c3ccco3)C(=O)N=C2S1	> 100 µM	> 100 µM	> 100 µM	> 100 µM	> 100 µM	> 100 µM	> 100 µM	> 100 µM	> 100 µM	> 100 µM				
OCC1OC(n2cnc3c(Cl)nc(Nc4ccccc4)nc32)CC1O (centres undefined)	> 100 µM	> 100 µM	8.15 µM	> 100 µM	37.8 µM	> 100 µM	> 100 µM	> 100 µM	> 100 µM	> 100 µM				
O=C(O)c1ccc(S(=O)(=O)c2ccccc2[N+](=O)[O-])cc1	> 10 µM	> 10 µM	> 10 µM	> 10 µM	> 10 µM	> 10 µM	> 10 µM	> 10 µM	> 10 µM	> 10 µM				
NP(=O)(OCC1=CC(=O)c2ccccc2C1=O)N(CCBr)CCBr (centres undefined)	> 100 µM	18.1 µM	34.6 µM	> 45.1 µM	4.6 µM	4.74 µM	25.8 µM	25.3 µM	33.9 µM	> 34.2 µM				
C=C1C(=O)CC2C(=O)C(C)(O)CC/C=C(\C)C(=O)CC12 (centres undefined)	23.5 µM	42.2 µM	53.9 µM	23 µM	27.1 µM	> 55.7 µM	> 77.3 µM	> 82.9 µM	29.5 µM	> 34.2 µM				
CN(C)c1ccc(C2SCC(=O)N2NS(=O)(=O)c2cccc(C(=O)O)c2)cc1 (centres undefined)	> 100 µM	> 100 µM	> 100 µM	> 100 µM	> 100 µM	> 100 µM	> 100 µM	> 100 µM	> 100 µM	> 100 µM				
CC1CCOc2ccc(cc2)C=Nc2ccc(cc2)CCc2ccc(cc2)N=Cc2ccc(cc2)OCC1 (centres undefined)	> 100 µM	> 100 µM	> 100 µM	> 100 µM	> 100 µM	> 100 µM	> 100 µM	> 100 µM	> 100 µM	> 100 µM				
C1CCC2C(C1)CCCC2NC1=NCCO1 (centres undefined)	> 100 µM	> 100 µM	> 100 µM	> 100 µM	> 100 µM	> 100 µM	> 100 µM	> 100 µM	> 100 µM	> 100 µM				
COc1ccc(Nc2nc(NS(=O)(=O)c3cc(C)c(Cl)cc3S)n[nH]2)cc1	> 100 µM	> 100 µM	> 100 µM	> 100 µM	> 100 µM	> 100 µM	> 100 µM	> 100 µM	> 100 µM	> 100 µM				
CCn1nc2c3c(ncn3C(C)(C)O2)c1=O	> 100 µM	> 100 µM	> 100 µM	> 100 µM	> 100 µM	> 100 µM	> 100 µM	> 100 µM	> 100 µM	> 100 µM				
Cc1ccc([C@H]2CC(=O)C[C@H](c3ccc(C)cc3)C23C(=O)c2ccccc2C3=O)cc1	59.9 µM	> 100 µM	> 100 µM	> 100 µM	> 100 µM	> 100 µM	> 100 µM	> 100 µM	> 100 µM	> 100 µM				
O=c1c2c([N+](=O)[O-])cccc2nc2[nH]c3ccccc3n12	> 75 µM	> 75 µM	> 75 µM	> 75 µM	> 75 µM	> 75 µM	> 75 µM	42.5 µM	> 75 µM	> 75 µM				
CC(=O)O[C@H]1CC[C@@]2(C)C(=CC[C@H]3[C@@H]4C[C@H](N5CCCC5)[C@H](OC(C)=O)[C@@]4(C)CC[C@@H]32)C1	> 100 µM	> 100 µM	> 100 µM	> 100 µM	> 74.3 µM	82.4 µM	> 100 µM	> 100 µM	> 100 µM	> 100 µM				

SMILES	TGI (CCRF-CEM leukemia)	TGI (DU-145 prostate)	TGI (EKVX NSCLC)	TGI (HCT-116 colon)	TGI (MALME-3M melanoma)	TGI (MDA-MB-435)	TGI (NCI-H226 lung)	TGI (SK-MEL-2 melanoma)	TGI (SN12C renal)	TGI (SW-620 colon)	GI50 (DU-145 prostate)	GI50 (MDA-MB-435)	GI50 (NCI-H226 lung)	GI50 (SN12C renal)
CCC1(C(=O)OC(C)(C)C)OC12C(C)CCCC2C (centres undefined)	39.8 µM	> 100 µM	> 100 µM	> 100 µM	> 100 µM	> 100 µM	> 100 µM	> 100 µM	> 100 µM	> 100 µM				
C[C@H](N)C(=O)Nc1ccc(-c2nc3ccccc3s2)cc1	24.8 µM	38.5 µM	26.8 µM	28.5 µM	39.5 µM	30.7 µM	97.8 µM	99.4 µM	56 µM	31 µM				
COc1cc(CNc2ccc(SC)cc2)cc(OC)c1OC	> 90.6 µM	> 95.7 µM	> 100 µM	51.1 µM and 35.4 µM	> 100 µM	80 µM	> 100 µM and 84.7 µM	46 µM and > 50.6 µM	> 100 µM	> 100 µM	24.8 µM and 7.82 µM	1.67 µM and 0.638 µM	26.4 µM and 11.9 µM	19.3 µM and 9.07 µM
COc1cc(C2SCC(=O)N2c2ccc(-c3ccc(-n4c(-c5ccccc5)nc5ccccc5c4=O)cc3)cc2)cc(OC)c1OC (centres undefined)	> 100 µM	> 100 µM	> 100 µM	35.1 µM	> 100 µM	> 100 µM	> 100 µM	56.5 µM	> 100 µM	> 100 µM				
CCC(C)C(NC(=O)CNC(=O)C(Cc1ccccc1)NC(=O)C1CCCN1C(=O)c1ccc(-c2ccc(Cl)cc2Cl)o1)C(=O)OC (centres undefined) (X36-PFGI-OMe; configuration not given here)	> 100 µM	> 100 µM	89.9 µM	> 100 µM	> 100 µM	> 100 µM	> 100 µM	> 100 µM	82.6 µM	> 100 µM				
NC(=O)NNC(=O)c1nc[nH]c1[N+](=O)[O-]	> 100 µM	> 100 µM	> 100 µM	> 100 µM	> 100 µM	> 100 µM	> 100 µM	> 100 µM	> 100 µM	> 100 µM				
O=C1c2ccccc2-c2nc(-c3cccc([N+](=O)[O-])c3)nnc21	> 100 µM	17 µM	61.1 µM	> 100 µM	38.4 µM	4.05 µM	35.9 µM	49.2 µM	45.7 µM	62.8 µM				
C/C=C/C(O)P1(=O)N(Cc2ccccc2)[C@@H]2CCCC[C@H]2N1Cc1ccccc1 (some centres undefined)	> 25 µM	> 25 µM	> 25 µM	> 25 µM	> 25 µM	> 25 µM	> 25 µM	> 25 µM	> 25 µM	> 25 µM				
CC(=O)O[C@H]1C#C/C=C\C#CC[C@@H]2C(=O)N[C@@H]12	> 100 µM	62 µM	> 100 µM	> 100 µM	> 100 µM	> 100 µM	90.8 µM	> 100 µM	> 80.4 µM	> 100 µM				
O=C(OCC1OC2OC(c3ccccc3)(n3ccc4c([N+](=O)[O-])ccnc43)OC2C1OC(=O)c1ccccc1)c1ccccc1 (centres undefined)	> 100 µM	> 100 µM	> 100 µM	> 100 µM	> 100 µM	> 100 µM	> 100 µM	> 100 µM	> 100 µM	> 100 µM				
COC(=O)C1=CC(=O)OC1(OO)c1ccccc1 (centres undefined)	51.1 µM	> 100 µM	> 100 µM	> 100 µM	> 100 µM	> 100 µM	> 100 µM	> 100 µM	> 100 µM	> 100 µM				
CCC1(C)N=C(c2cnccn2)NN1c1ccc(Cl)cc1 (centres undefined)	59.9 µM	> 100 µM	> 100 µM	> 100 µM	> 100 µM	> 100 µM	> 100 µM	> 100 µM	72.3 µM	> 100 µM				
N#C/C(=C\n1ccc(=O)[nH]c1=S)C(N)=O	> 100 µM	> 100 µM	> 100 µM	> 100 µM	> 100 µM	> 100 µM	> 100 µM	> 100 µM	> 100 µM	> 100 µM				
Cc1ccc2c(=O)cc(-c3cccs3)[nH]c2n1	> 87.6 µM	> 100 µM	> 100 µM	> 100 µM	> 100 µM	5.65 µM	63.7 µM	> 82.7 µM	> 100 µM	> 30.1 µM				
COc1ccc(/C=N/N=C(\N)NO)c(O)c1	> 10 µM	> 10 µM	> 10 µM	> 10 µM	> 10 µM	4.49 µM	> 10 µM	> 10 µM	> 10 µM	> 10 µM				
N#Cc1nc(-c2cccs2)oc1N	> 100 µM	> 100 µM	> 100 µM	> 100 µM	> 100 µM	> 100 µM	> 100 µM	> 100 µM	> 100 µM	> 100 µM				
